Laboratory results from the NIST ThermoML archive (doi:10.1021/je700647x).

Experiments:
[1] = Ring tensiometer
[2] = xn = mol fraction of the nth substance listed; details: Ring tensiometer

CN(CCO)CCO [N-methyldiethanolamine]
[1]
Details | surface tension liquid-gas [mN/m]
288.15 K | 39.99
293.15 K | 39.26
298.15 K | 38.92
303.15 K | 38.08
308.15 K | 37.63
313.15 K | 37.25

CN(CCO)CCO [N-methyldiethanolamine] + CCO
surface tension liquid-gas [mN/m], [2]
Details | 288.15 K | 293.15 K | 298.15 K | 303.15 K | 308.15 K | 313.15 K
x1 = 0.0253 | 23.45 | 23.11 | 22.79 | 22.49 | 22.16 | 21.92
x1 = 0.0321 | 23.58 | 23.24 | 22.92 | 22.63 | 22.27 | 22.04
x1 = 0.1033 | 24.92 | 24.59 | 24.32 | 24.06 | 23.77 | 23.58
x1 = 0.1629 | 26.03 | 25.7 | 25.45 | 25.26 | 24.94 | 24.81
x1 = 0.1705 | 26.18 | 25.83 | 25.59 | 25.38 | 25.08 | 24.98
x1 = 0.2474 | 27.58 | 27.24 | 27.02 | 26.79 | 26.53 | 26.44
x1 = 0.3713 | 29.85 | 29.47 | 29.28 | 28.95 | 28.75 | 28.63
x1 = 0.4806 | 31.8 | 31.4 | 31.18 | 30.84 | 30.62 | 30.49
x1 = 0.5506 | 33.02 | 32.6 | 32.39 | 32.01 | 31.78 | 31.66
x1 = 0.7035 | 35.58 | 35.06 | 34.92 | 34.48 | 34.24 | 34.07
x1 = 0.7452 | 36.25 | 35.71 | 35.58 | 35.08 | 34.84 | 34.66
x1 = 0.8227 | 37.51 | 36.91 | 36.71 | 36.09 | 35.8 | 35.57
x1 = 0.9368 | 39.11 | 38.42 | 38.1 | 37.39 | 37 | 36.73
x1 = 1 | 39.99 | 39.26 | 38.92 | 38.08 | 37.63 | 37.25
